In patent US20210299198A1, “DIABETES-ALLEVIATING OR ANTIOXIDANT COMPOSITION COMPRISING YEAST EXTRACT AND METHOD FOR PREPARING YEAST EXTRACT” (COENBIO CO., LTD., priority 2018, published 2021):
Like-named read-outs stand apart in the source and are kept apart here.

Legend:
[1] = Radical cation de-colorization assay using ABTS; type: biochemical
Experimental: 7 mM ABTS was mixed with 2.45 mM potassium persulfate and incubated at room temperature for 16 h to create ABTS cations (ABTS^+). […] The results are shown in Tables 5 and 6 (see FIGS. 4 and 8).

[2] = type: biochemical
Experimental: First, 50 μL of potassium ferricyanide and 20 μL of each sample were added to 50 μL of a 0.2 M phosphate buffer solution (pH 6.6) and the mixture was allowed to react at 50° C. for 20 min. After completion of the reaction, 50 μL of a 10% TCA solution was added, followed by centrifugation at 3000×g for 20 min. 100 μL of the supernatant, 200 μL of triple-distilled water, and 20 μL of 0.1% ferric chloride were added, and the absorbance was measured at 700 nm. Trolox and BHA were used as positive controls.

[3] = Free radical scavenging assay using DPPH; type: biochemical
Experimental: An antioxidant scavenges DPPH radicals, losing its original color and being made transparent. The test sample was mixed with 2,2-diphenyl-1-picrylhydrazyl (DPPH, 100 μM) in a ratio of 1:20 and the mixture was stored at 37° C. for 30 min. After completion of the reaction, the absorbance was measured at 517 nm using a spectrophotometer. A lower absorbance indicates a higher antioxidant activity. […] The results are shown in Tables 3 and 4 (see FIGS. 3 and 7).

## O=C1O[C@H]([C@@H](O)CO)C(O)=C1O [Ascorbic acid, ascorbic acid]
[1]; yeast extracts 1
  ABTS scavenging activities (IC50) AVERAGE: 260 µg/mL
[1]; yeast extracts 2
  ABTS scavenging activities (IC50) AVERAGE: 260 µg/mL
[2]; yeast extract 2, 15.625 μg/mL
  Reducing power activities (absorbance at 700 nm): 0.058 ± 0.001
[2]; yeast extract 2, 62.5 μg/mL
  Reducing power activities (absorbance at 700 nm): 0.267 ± 0.002
[2]; yeast extract 2, 250 μg/mL
  Reducing power activities (absorbance at 700 nm): 0.940 ± 0.005
[2]; yeast extract 2, 1000 μg/mL
  Reducing power activities (absorbance at 700 nm): 1.146 ± 0.008
[2]; yeast extracts 1, 15.625 μg/mL
  Reducing power activities (absorbance at 700 nm): 0.058 ± 0.001
[2]; yeast extracts 1, 62.5 μg/mL
  Reducing power activities (absorbance at 700 nm): 0.267 ± 0.002
[2]; yeast extracts 1, 250 μg/mL
  Reducing power activities (absorbance at 700 nm): 0.940 ± 0.005
[2]; yeast extracts 1, 1000 μg/mL
  Reducing power activities (absorbance at 700 nm): 1.146 ± 0.008
[3]; yeast extracts 1
  DPPH scavenging activities (IC50) AVERAGE: 10 µg/mL
[3]; yeast extracts 2
  DPPH scavenging activities (IC50) AVERAGE: 10 µg/mL
